Converted amounts (≈) assume the structure as drawn. The source made the active and inactive calls. The calls are words filed in the database; no cut-off is given here.
Experiments:
Type in all cases: functional
Pseudomonas aeruginosa = experiment: Antibacterial activity against Pseudomonas aeruginosa MTCC 2642 after 24 hr by serial tube dilution method
Salmonella typhi = experiment: Antibacterial activity against Salmonella enterica subsp. enterica serovar Typhi MTCC 1251 after 24 hr by serial tube dilution method
Escherichia coli = experiment: Antibacterial activity against Escherichia coli MTCC 82 after 24 hr by serial tube dilution method
Staphylococcus aureus = experiment: Antibacterial activity against Staphylococcus aureus MTCC 96 after 24 hr by serial tube dilution method
Bacillus subtilis = experiment: Antibacterial activity against Bacillus subtilis MTCC 2451 after 24 hr by serial tube dilution method
OVCAR = experiment: Cytotoxicity against Homo sapiens (human) OVCAR cells assessed as cell growth inhibition at 1 x 10^-5 M after 48 hr by SRB assay; details: for inhibition of growth at 10 µM: read-out: GI
Candida albicans = experiment: Antifungal activity against Candida albicans MTCC 3018 after 48 hr by serial tube dilution method; details: MTCC 3018, 48 h
Aspergillus niger = experiment: Antifungal activity against Aspergillus niger MTCC 1344 after 48 hr by serial tube dilution method; details: MTCC 1344, 48 h
HEp-2 = experiment: Cytotoxicity against Homo sapiens (human) Hep2 cells assessed as cell growth inhibition at 1 x 10^-5 M after 48 hr by SRB assay; details: for inhibition of growth at 10 µM: HEp-2, 48 h, read-out: GI
IMR-32 = experiment: Cytotoxicity against Homo sapiens (human) IMR32 cells assessed as cell growth inhibition at 1 x 10^-5 M after 48 hr by SRB assay; details: for inhibition of growth at 10 µM: IMR-32, 48 h, read-out: GI
PC-3 = experiment: Cytotoxicity against Homo sapiens (human) PC3 cells assessed as cell growth inhibition at 1 x 10^-5 M after 48 hr by SRB assay; details: for inhibition of growth at 10 µM: PC-3, 48 h, read-out: GI

Compound | MIC (Pseudomonas aeruginosa; MTCC 2642, 24 h) [µg/mL] | MIC (Salmonella typhi; MTCC 1251, 24 h) [µg/mL] | MIC (Escherichia coli; MTCC 82, 24 h) [µg/mL] | MIC (Staphylococcus aureus; MTCC 96, 24 h) [µg/mL] | MIC (Bacillus subtilis; MTCC 2451, 24 h) [µg/mL] | inhibition of growth at 10 µM (OVCAR) [%] | MIC (Candida albicans) [µg/mL] | MIC (Aspergillus niger) [µg/mL] | inhibition of growth at 10 µM (HEp-2) [%] | inhibition of growth at 10 µM (IMR-32) [%] | inhibition of growth at 10 µM (PC-3) [%] | growth inhibition (GI) (IMR-32) | growth inhibition (GI) (PC-3) | growth inhibition (GI) (OVCAR) | growth inhibition (GI) (HEp-2) | MIC (Pseudomonas aeruginosa) [µg/mL] | MIC (Salmonella typhi) [µg/mL] | MIC (Escherichia coli) [µg/mL] | MIC (Staphylococcus aureus) [µg/mL] | MIC (Bacillus subtilis) [µg/mL]
CC1(C)S[C@@H]2[C@H](NC(=O)[C@H](N)c3ccc(O)cc3)C(=O)N2[C@H]1C(=O)O [AMOXICILLIN] | 0.3 (≈ 0.821 µM) | 0.2 (≈ 0.547 µM) | 0.25 (≈ 0.684 µM) | 0.2 (≈ 0.547 µM) | 0.2 (≈ 0.547 µM) | – | – | – | – | – | – | – | – | – | – | – | – | – | – | –
COc1ccc(/C=C/C(=O)c2ccco2)cc1O | 125 (≈ 512 µM) | 62.5 (≈ 256 µM) | 62.5 (≈ 256 µM) | 31.2 (≈ 128 µM) | 62.5 (≈ 256 µM) | 23 | 250 (≈ 1020 µM) | 250 (≈ 1020 µM) | 19 | 16 | 21 | – | – | – | – | – | – | – | – | –
COc1cccc(/C=C/C(=O)c2ccc[nH]2)c1OC | – | – | – | – | – | 24 | – | – | 33 | 28 | 31 | – | – | – | – | – | – | – | – | –
O=C(/C=C/c1cccc(Cl)c1Cl)c1ccc2ccccc2c1 | 62.5 (≈ 191 µM) | 62.5 (≈ 191 µM) | 31.2 (≈ 95.4 µM) | 31.2 (≈ 95.4 µM) | 31.2 (≈ 95.4 µM) | 11 | 250 (≈ 764 µM) | 250 (≈ 764 µM) | 9 | – | – | inactive | inactive | – | – | – | – | – | – | –
O=C(/C=C/c1c(Cl)cccc1Cl)c1ccc[nH]1 | 31.2 (≈ 117 µM) | 31.2 (≈ 117 µM) | 15.6 (≈ 58.6 µM) | 15.6 (≈ 58.6 µM) | 31.2 (≈ 117 µM) | – | 125 (≈ 470 µM) | 125 (≈ 470 µM) | 16 | 12 | – | – | inactive | inactive | – | – | – | – | – | –
O=C(/C=C/c1c(Cl)cccc1Cl)c1ccco1 | 250 (≈ 936 µM) | 125 (≈ 468 µM) | 62.5 (≈ 234 µM) | 62.5 (≈ 234 µM) | 125 (≈ 468 µM) | – | 250 (≈ 936 µM) | 250 (≈ 936 µM) | 11 | – | – | inactive | inactive | inactive | – | – | – | – | – | –
O=C(/C=C/c1cccc([N+](=O)[O-])c1)c1ccco1 | 125 (≈ 514 µM) | – | 125 (≈ 514 µM) | 125 (≈ 514 µM) | 125 (≈ 514 µM) | 13 | – | – | 16 | – | – | inactive | inactive | – | – | – | – | – | – | –
O=C(/C=C/c1ccc(Cl)cc1Cl)c1ccc[nH]1 | 31.2 (≈ 117 µM) | 15.6 (≈ 58.6 µM) | 15.6 (≈ 58.6 µM) | 7.8 (≈ 29.3 µM) | 15.6 (≈ 58.6 µM) | 13 | 125 (≈ 470 µM) | 62.5 (≈ 235 µM) | 16 | – | – | inactive | inactive | – | – | – | – | – | – | –
COc1ccc(/C=C/C(=O)c2ccc3ccccc3c2)c(OC)c1OC | 7.8 (≈ 22.4 µM) | 15.6 (≈ 44.8 µM) | 15.6 (≈ 44.8 µM) | 3.9 (≈ 11.2 µM) | 3.9 (≈ 11.2 µM) | 88 | 125 (≈ 359 µM) | 62.5 (≈ 179 µM) | 72 | 75 | 81 | – | – | – | – | – | – | – | – | –
COc1ccc(/C=C/C(=O)c2ccco2)cc1OC | 31.2 (≈ 121 µM) | 15.6 (≈ 60.4 µM) | 15.6 (≈ 60.4 µM) | 31.2 (≈ 121 µM) | 31.2 (≈ 121 µM) | – | 250 (≈ 968 µM) | 125 (≈ 484 µM) | 27 | 33 | 29 | – | – | inactive | – | – | – | – | – | –
COc1ccc(/C=C/C(=O)c2ccc3ccccc3c2)cc1OC | 125 (≈ 393 µM) | 62.5 (≈ 196 µM) | 125 (≈ 393 µM) | 62.5 (≈ 196 µM) | 62.5 (≈ 196 µM) | 49 | 500 (≈ 1570 µM) | 250 (≈ 785 µM) | 53 | 51 | 53 | – | – | – | – | – | – | – | – | –
COc1ccc(/C=C/C(=O)c2ccc3ccccc3c2)cc1O | 250 (≈ 821 µM) | 125 (≈ 411 µM) | 62.5 (≈ 205 µM) | 15.6 (≈ 51.3 µM) | 31.2 (≈ 103 µM) | 52 | – | – | 57 | 61 | 47 | – | – | – | – | – | – | – | – | –
COc1cc(/C=C/C(=O)c2ccc3ccccc3c2)cc(OC)c1OC | 15.6 (≈ 44.8 µM) | 15.6 (≈ 44.8 µM) | 3.9 (≈ 11.2 µM) | 1.9 (≈ 5.45 µM) | 3.9 (≈ 11.2 µM) | 87 | 125 (≈ 359 µM) | 125 (≈ 359 µM) | 79 | 81 | 84 | – | – | – | – | – | – | – | – | –
O=C(/C=C/c1cccc([N+](=O)[O-])c1)c1ccc[nH]1 | – | 500 (≈ 2060 µM) | 250 (≈ 1030 µM) | 125 (≈ 516 µM) | 250 (≈ 1030 µM) | – | – | 500 (≈ 2060 µM) | 17 | 14 | 13 | – | – | inactive | – | – | – | – | – | –
O=C(/C=C/c1cccc(Br)c1)c1ccc2ccccc2c1 | 250 (≈ 741 µM) | 125 (≈ 371 µM) | 250 (≈ 741 µM) | 125 (≈ 371 µM) | 125 (≈ 371 µM) | 14 | – | – | – | 11 | – | – | inactive | – | inactive | – | – | – | – | –
OC(Cn1cncn1)(Cn1cncn1)c1ccc(F)cc1F [FLUCONAZOLE] | – | – | – | – | – | – | 0.3 (≈ 0.98 µM) | 0.2 (≈ 0.653 µM) | – | – | – | – | – | – | – | – | – | – | – | –
COc1ccc(/C=C/C(=O)c2ccc3ccccc3c2)cc1 | – | – | – | – | – | 31 | – | – | 29 | 36 | 33 | – | – | – | – | – | – | – | – | –
O=C(/C=C/c1ccc2c(c1)OCO2)c1ccc2ccccc2c1 | 250 (≈ 827 µM) | 125 (≈ 413 µM) | 125 (≈ 413 µM) | 62.5 (≈ 207 µM) | 125 (≈ 413 µM) | 46 | – | – | 42 | 39 | 42 | – | – | – | – | – | – | – | – | –
O=C(/C=C/c1ccc2c(c1)OCO2)c1ccco1 | 125 (≈ 516 µM) | 125 (≈ 516 µM) | 125 (≈ 516 µM) | 62.5 (≈ 258 µM) | 31.2 (≈ 129 µM) | 11 | – | 500 (≈ 2060 µM) | 13 | 16 | 21 | – | – | – | – | – | – | – | – | –
COc1ccc(OC)c(/C=C/C(=O)c2ccco2)c1 | 31.2 (≈ 121 µM) | 62.5 (≈ 242 µM) | 31.2 (≈ 121 µM) | 62.5 (≈ 242 µM) | 31.2 (≈ 121 µM) | – | 125 (≈ 484 µM) | 125 (≈ 484 µM) | 29 | 31 | 23 | – | – | inactive | – | – | – | – | – | –
O=C(/C=C/c1ccccc1)c1ccco1 | – | – | – | 250 (≈ 1260 µM) | 250 (≈ 1260 µM) | – | – | – | – | 13 | 19 | – | – | inactive | inactive | – | – | – | – | –
O=C(/C=C/c1ccc2ccccc2c1)c1ccc2ccccc2c1 | 250 (≈ 811 µM) | – | 125 (≈ 405 µM) | 62.5 (≈ 203 µM) | 125 (≈ 405 µM) | 76 | – | – | 73 | 77 | 79 | – | – | – | – | – | – | – | – | –
O=C(/C=C/c1ccc([N+](=O)[O-])cc1)c1ccc[nH]1 | – | – | 500 (≈ 2060 µM) | 250 (≈ 1030 µM) | – | 14 | – | – | 13 | 11 | 11 | – | – | – | – | – | – | – | – | –
O=C(/C=C/c1cccc([N+](=O)[O-])c1)c1ccc2ccccc2c1 | – | – | 250 (≈ 824 µM) | 125 (≈ 412 µM) | – | 13 | – | – | 17 | 11 | 16 | – | – | – | – | – | – | – | – | –
COc1ccc(OC)c(/C=C/C(=O)c2ccc3ccccc3c2)c1 | – | 250 (≈ 785 µM) | 250 (≈ 785 µM) | 125 (≈ 393 µM) | 125 (≈ 393 µM) | 52 | – | – | 47 | 51 | 49 | – | – | – | – | – | – | – | – | –
GENTAMICIN | – | – | – | – | – | – | – | – | – | – | – | – | – | – | – | 0.25 | 0.2 | 0.25 | 0.4 | 0.3
O=C(/C=C/c1ccccc1)c1ccc[nH]1 | – | 500 (≈ 2540 µM) | 500 (≈ 2540 µM) | 125 (≈ 634 µM) | 250 (≈ 1270 µM) | 18 | – | – | 23 | 14 | 22 | – | – | – | – | – | – | – | – | –
O=C(/C=C/c1ccco1)c1ccc2ccccc2c1 | 250 (≈ 1010 µM) | 500 (≈ 2010 µM) | – | 125 (≈ 503 µM) | 250 (≈ 1010 µM) | – | – | – | 21 | 13 | 16 | – | – | inactive | – | – | – | – | – | –
COc1cc(/C=C/C(=O)c2ccco2)cc(OC)c1OC | 15.6 (≈ 54.1 µM) | 31.2 (≈ 108 µM) | 62.5 (≈ 217 µM) | 15.6 (≈ 54.1 µM) | 31.2 (≈ 108 µM) | 28 | 62.5 (≈ 217 µM) | 62.5 (≈ 217 µM) | 47 | 49 | 42 | – | – | – | – | – | – | – | – | –
O=C(/C=C/c1ccccc1)c1ccc2ccccc2c1 | 500 (≈ 1940 µM) | – | 500 (≈ 1940 µM) | 250 (≈ 968 µM) | – | 21 | – | – | 27 | 19 | 28 | – | – | – | – | – | – | – | – | –

Reference: ChEMBL document CHEMBL3045657, “Synthesis and biological evaluation of naphthalene, furan and pyrrole based chalcones as cytotoxic and antimicrobial agents” (2012)
